Reference: patent US9034857B2 (Health Research, Inc., priority 2010, dated 2015)
Entries after “also recorded” stand apart in the source; their conditions may differ. Where two headings read alike, the source gives them in different places.

Assays:
ribonucleotide reductase = conditions: low levels of hydroxyurea; cited from earlier work
[1] = test system: interleukin-6 release from human macrophages; assay: Interleukin-6 release from human macrophages; assay type: cell-based
[2] = test system: intracellular O2- in stationary phase budding yeast cells; assay: High throughput flow cytometry DHE screen for reduction of superoxide in stationary phase budding yeast; assay type: cell-based, S. cerevisiae
[3] = test system: O2- in stationary phase cells; assay: Levels of O2- detected by DHE fluorescence in stationary phase cells; assay type: cell-based, Saccharomyces cerevisiae; conditions: for Superoxide anions: Table 2 summary, stationary phase
Experimental: The following materials and methods were used to obtain the data presented in this Example. To assess CLS 50 ml cultures were inoculated with 1% (v/v) of a fresh overnight culture in either SC or YPD. SC was supplemented using known techniques. In experiments that employed media that initially contained 10% glucose, control 2% glucose cultures also contained 8% sorbitol to maintain equivalent osmolarity. Determination of chronological life span, fraction of budded cells, flow cytometry measurements of DNA content and measurements of dihydroethidium (DHE) and dihydrorhodamine 123 (DHR) were used according to standard methods. N-acetylcysteine (NAC) and glutathione (GSH) were dissolved in growth medium, filter sterilized and added to cultures from 100 mM (NAC) or 250 mM (GSH) stocks at the start of experiments. Propidium iodide (PI) was used to assess viability of cells by mixing a 2 μl of cells with an equal volume of 1 mM PI on a microscope slide and examining the slide with a fluorescence microscope equipped with a Texas Red filter. Non-fluorescent cells were scored as intact (live) and fluorescent cells were scored as dead. The total number of cells in cultures was determined by particle counts using a Petroff Hauser counting chamber. Samples for transmission electron microscopy were prepared using standard methods. Briefly, cells cultured at 30° C. in YPD medium for 3 to 5 days were harvested by gentle centrifugation, washed in phosphate buffered saline (PBS) (pH=7.2), resuspended in 2.5% (v/v) glutaraldehyde in PBS and fixed for 40 min at room temperature. Cells were further fixed by 2% freshly prepared potassium permanganate in water for 1 hour at room temperature. Fixed cells were dehydrated with 30%, 50%, 75%, 85%, 95%, and 100% ethanol. Cells were transitioned with propylene oxide, infiltrated in Spurr resin (Electron Microscopy Sciences, PA). Resin was polymerized at 65° C. overnight in the oven. 60 nm ultrathin sections were cut with a diamond knife, stained with 2% uranyl acetate and lead citrate and examined using a Hitachi H-7000 electron microscope, equipped with a 4K×4K cooled CCD digital camera (Gatan, Inc., CA). Values presented in graphs that contain error bars represent means and standard deviations from three or more independent experiments. Other results are representative of at least three independent experiments. Statistical analyses were performed using Student's t-test. P<0.05 was considered statistically significant.

budding yeast = conditions: cited from earlier work
mammalian cells = conditions: cited from earlier work
Saccharomyces cerevisiae = assay: Chronological lifespan (CLS) of budding yeast; assay type: cell-based
[4] = dose response assays from 0.004 uM to 30 uM, 7 day incubation, 7% glucose

## NC(=O)NO [hydroxyurea]
Ribonucleotide reductase
  shortening of CLS: 20-27%

## O=C(Nc1ccccc1-c1cn2c(CN3CCNCC3)csc2n1)c1cnc2ccccc2n1 [SRT1720, reference compound]
[1]
  inhibition of interleukin-6 release: inhibit interleukin-6 release
[2]
  reducing superoxide anions in S. cerevisiae: reducing superoxide anions

## N[C@@H](CCC(=O)N[C@@H](CS)C(=O)NCC(=O)O)C(=O)O [GSH, glutathione]
[3]
  Superoxide anions: ↓
[3]; wild type cells, day 3 of medium depletion
  levels of O2- (DHE fluorescence): reduced levels of O2-

## Cc1c(C)c2c(c(C)c1O)CC[C@@](C)(CCC[C@H](C)CCC[C@H](C)CCCC(C)C)O2 [α-tocopherol]
Budding yeast
  pro-oxidant effects: pro-oxidant effects

## CC(=O)N[C@@H](CS)C(=O)O [N-acetylcysteine]
[3]
  levels of O2- (DHE fluorescence): absent
  Superoxide anions: ↑
[3]; wild type cells, day 3 of medium depletion, listed as NAC
  levels of O2- (DHE fluorescence): dose-dependent increases; also recorded: elevate O2- levels
Mammalian cells
  induction of O2-: induction of O2-
Saccharomyces cerevisiae; sch9Δ cells
  chronological lifespan (CLS): not sch9Δ cells
Saccharomyces cerevisiae; wild type cells, listed as NAC
  chronological lifespan (CLS): shortened CLS in a dose-dependent fashion; also recorded: shorten CLS

## COC1=C(OC)C(=O)C(C/C=C(\C)CC/C=C(\C)CC/C=C(\C)CC/C=C(\C)CC/C=C(\C)CC/C=C(\C)CC/C=C(\C)CC/C=C(\C)CC/C=C(\C)CCC=C(C)C)=C(C)C1=O [coenzyme Q10]
Budding yeast
  pro-oxidant effects: pro-oxidant effects

## Cc1ccc(-c2nn(C(C)(C)C)c3ncnc(N)c23)cc1 [MLS000326642, 1-tert-butyl-3-(4-methylphenyl)pyrazolo[3,4-d]pyrimidin-4-amine]
[1]
  inhibition of interleukin-6 release: inhibit interleukin-6 release
[2]
  dose dependency in re-screening (reduction of superoxide, DHE): identified by dose dependency; also recorded: exhibited dose dependency
  reducing superoxide anions in S. cerevisiae: reducing superoxide anions

## C=C1[C@@H](O)[C@@H]2O[C@]3(CC[C@H](/C=C/[C@@H](C)[C@@H]4CC(C)=C[C@@]5(O[C@H](C[C@@](C)(O)C(=O)O)CC[C@H]5O)O4)O3)CC[C@H]2O[C@@H]1[C@@H](O)C[C@H](C)[C@H]1O[C@@]2(CCCCO2)CC[C@H]1C [MLS002320508, (2R)-3-[(4S,10S)-4-[(E)-4-[(2S,2′R,4aS,6R,8aR)-4-hydroxy-2-[1-hydroxy-3-[(10S)-9-methyl-5,11-dioxaspiro[5.5]undecan-10-yl]butyl]-3-methylidenespiro[4a,7,8,8a-tetrahydro-4H-pyran[3,2-b]pyran-6,5′-oxolane]-2′-yl]but-3-en-2-yl]-7-hydroxy-2-methyl-5,11-dioxaspiro[5.5]undec-1-en-10-yl]-2-hydroxy-2-methylpropanoic acid]
[2]
  dose dependency in re-screening (reduction of superoxide, DHE): identified by dose dependency; also recorded: exhibited dose dependency

## COc1ccc2nc3ccccc3nc2c1 [MLS000768124, 2-methoxyphenazine]
[2]; [4]
  dose dependency in re-screening (reduction of superoxide, DHE): identified by dose dependency; also recorded: exhibited dose dependency

## Nc1nc[nH]n1 [3-aminotriazol, reference compound]
[2]
  decrease in superoxide signals (control compound): more robust and reproducible decrease in superoxide signals

## COc1ccc2nc3ccccc3[n+]([O-])c2c1 [MLS002638803, 2-methoxy-10-oxidophenazin-10-ium]
[2]; [4]
  dose dependency in re-screening (reduction of superoxide, DHE): identified by dose dependency; also recorded: exhibited dose dependency

## O=C(/C=C/c1ccccc1)NC(=S)NNC(=O)Cc1cccs1 [MLS000121367, (E)-3-phenyl-N—[[(2-thiophen-2-ylacetyl)amino]carbamothioyl]prop-2-enamide]
[2]; [4]
  dose dependency in re-screening (reduction of superoxide, DHE): identified by dose dependency; also recorded: exhibited dose dependency

## c1ccc2nc3ccccc3nc2c1 [MLS000584128, phenazine]
[2]; [4]
  dose dependency in re-screening (reduction of superoxide, DHE): identified by dose dependency; also recorded: exhibited dose dependency

## Nc1cc2nc3ccccc3nc2cc1N [MLS001044416, phenazine-2,3-diamine]
[2]
  dose dependency in re-screening (reduction of superoxide, DHE): identified by dose dependency; also recorded: exhibited dose dependency

## c1ccc2nc3cc4[nH]cnc4cc3nc2c1 [MLS000700045, 1H-imidazo[4,5-b]phenazine]
[1]
  inhibition of interleukin-6 release: inhibit interleukin-6 release
[2]
  reducing superoxide anions in S. cerevisiae: reducing superoxide anions
[2]; [4]
  dose dependency in re-screening (reduction of superoxide, DHE): identified by dose dependency; also recorded: exhibited dose dependency

## COc1ccc2c3c(cccc13)N(C)N=C2C [MLS000554700, 6-Methoxy-1,3-dimethyl-1H-benzo[de]cinnoline]
[2]; [4]
  dose dependency in re-screening (reduction of superoxide, DHE): identified by dose dependency; also recorded: exhibited dose dependency

## O=c1cccc2[nH]c3ccccc3nc1-2 [MLS000737174, 5H-phenazin-1-one]
[2]
  dose dependency in re-screening (reduction of superoxide, DHE): identified by dose dependency; also recorded: exhibited dose dependency
